The text below walks through data of patent publication US20230312601A1, “THIAZOLO[5,4-B]PYRIDINE MALT-1 INHIBITORS” (AbbVie Inc., priority 2022, published 2023).

In one data set the target is human MALT-1 protein (Homo sapiens (Human), UniProt Q9UDY8). Briefly: MALT-1 Biochemical Assay (Quench-FRET enzyme assay). The settings on record: human MALT-1 6 nM, substrate 2 μM, 40 min preincubation. The text has this: A Quenched Fluorescence Resonance Energy Transfer (Quench-FRET) enzyme assay was used to test the ability of exemplary MALT-1 inhibitors Example 1 to Example 39 to inhibit the cleavage of a MALT1 specific quenched fluorescent substrate of sequence [TAMRA-PEG2-Leu-Val-Ser-Arg-Gly-Ala-Ala-Ser-PEG2-K(QSY7) by human MALT-1 protein; where TAMRA is 6-carboxytetramethylrhodamine, PEG2 is 2-(2-(2-aminoethoxy)ethoxyamide linker, QSY7 is a non-fluorescent quenching dye (Thermo-Fisher catalog #Q10193). The assay was performed by pre-dispensing compounds into 384 well Proxiplates™ (PE 6008289). Human MALT-1 (6 nM) was prepared using the assay buffer (25 mM HEPES pH 7.5, 1 mM ethylenediaminetetraacetic acid, 0.8 M sodium citrate, 0.005% Bovine serum albumin (BSA), 2 mM dithiothreitol (DTT)) and added to the compound plates. The plates were incubated 40 minutes at room temperature. The reaction was carried out by adding the substrate (2 μM) to the plates and incubating for 60 minutes at room temperature. A fluorescence readout was then measured using a PE EnVision® reader (Ex.535/Em.590). […] EC50 is defined as the half maximal effective concentration of compound to inhibit MALT-1 protease activity.
human MALT-1 protein, sequence (Q9UDY8 whole entry): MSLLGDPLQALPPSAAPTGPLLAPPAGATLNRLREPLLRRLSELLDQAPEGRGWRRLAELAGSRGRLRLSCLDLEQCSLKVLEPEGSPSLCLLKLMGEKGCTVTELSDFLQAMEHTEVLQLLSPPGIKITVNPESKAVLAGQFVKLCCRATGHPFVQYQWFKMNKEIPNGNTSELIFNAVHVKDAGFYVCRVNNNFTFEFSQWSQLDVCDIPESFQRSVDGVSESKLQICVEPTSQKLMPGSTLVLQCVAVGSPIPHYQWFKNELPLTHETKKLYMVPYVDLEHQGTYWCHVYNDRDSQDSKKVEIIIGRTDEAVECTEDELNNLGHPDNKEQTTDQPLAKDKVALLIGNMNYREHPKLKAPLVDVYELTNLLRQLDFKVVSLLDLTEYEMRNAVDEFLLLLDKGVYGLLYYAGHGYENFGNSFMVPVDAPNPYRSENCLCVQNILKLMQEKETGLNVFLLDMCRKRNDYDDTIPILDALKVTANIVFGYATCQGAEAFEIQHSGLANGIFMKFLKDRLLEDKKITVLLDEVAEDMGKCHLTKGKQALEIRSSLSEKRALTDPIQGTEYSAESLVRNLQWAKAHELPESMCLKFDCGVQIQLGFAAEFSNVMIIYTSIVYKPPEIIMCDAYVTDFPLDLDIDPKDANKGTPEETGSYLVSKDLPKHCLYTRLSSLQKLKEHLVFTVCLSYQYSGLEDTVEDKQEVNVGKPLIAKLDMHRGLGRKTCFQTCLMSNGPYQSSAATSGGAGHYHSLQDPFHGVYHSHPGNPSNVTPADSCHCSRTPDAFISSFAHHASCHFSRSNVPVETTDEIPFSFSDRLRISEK

The subject of a further data set is OCI-LY3 IL6. Briefly: MALT-1 Cell IL-6 AlphaLISA Assay. The settings on record: Homo sapiens; OCI-LY3 cells, 48 hours incubation; read-out: OCI-LY3 IL6 48 hour Inhibition EC50. It counts as cell-based. As to the method:
The following MALT-1 Cell Interleukin-6 (IL-6) AlphaLISA assay was conducted using a Perkin Elmer® IL-6 AlphaLISA® detection kit (PE AL223). The IL-6 detection assay is a homogeneous immunoassay that detects human IL-6 present in the cell culture medium in the MALT-1 dependent human ABC-DLBCL cell line, OCI-LY3. Compounds were pre-dispensed into Black 384w microtiter plates (Greiner, 781090) from 30 μM to 1.5 nM. Viable OCI-LY3 cells were then seeded on top of compounds at a seeding density of 50,000 cells/mL. Plates were then placed into 37° C. incubators for 48 hours. After 48 hours incubation, 2 μL of cell medium from each well was transferred into white ProxiPlates™ (PE 6008289). A fresh mix of AlphaLISA Acceptor beads (10 μg/mL) and Biotinylated IL-6 Antibody (1 nM) was made in AlphaLISA Immunoassay buffer and added to all wells (4 μL). The plates were incubated for 60 minutes at room temperature. Streptavidin donor beads (40 μg/mL) were prepared using the assay buffer and added to all wells (5 The plates were incubated for 30 minutes at room temperature and read using PE EnVision® reader. Results are shown in Table 3.

Another data set has as its system CYP 3A4 mRNA. Briefly: CYP3A4 Induction Assay (qPCR, human hepatocytes). The settings on record: 10 μM compound, relative to rifampicin 10 μM. In kind it is in vitro ADME. As to the method:
(§1) CYP induction by compounds of the Examples was evaluated in vitro by determining the expression levels of CYP 3A4 mRNA using the qPCR (quantitative polymerase chain reaction) assay. On day one, cryopreserved human hepatocytes were thawed in prewarmed (37° C.) thawing medium (cryopreserved hepatocyte recovery medium, Gibco™ CM 7000; Thermo Fisher Scientific), centrifuged (1000 g for 10 minutes) and resuspended in plating medium (Gibco™ CM3000—Williams Medium E supplemented with hepatocytes plating supplement pak-serum containing; Thermo Fisher Scientific). Cells were counted by trypan blue exclusion using a hemocytometer and adjusted to a cell density of […]. Thereafter, […] of cell suspension was aliquoted per well in a 96-well plate, resulting in 60,000 cells/well. Plates were shaken in the north-south and east-west direction during plating. Plated cells were incubated at 37° C/5% CO2 in a humidified cell culture incubator for 4-6 hours. During this time, incubation medium (Gibco™ CM4000, cell maintenance supplement pack; Thermo Fisher Scientific) was mixed with Gibco™ Geltrex™ (Thermo Fischer Scientific) at the appropriate GeltrexTM protein concentration. Following recovery, medium was removed from cells and replaced with freshly prepared incubation medium. Cells were incubated overnight in a cell culture incubator (37° C./5% CO2).
(§2) The next day the incubation medium was prepared by combining the hepatocyte maintenance supplement pack with Williams Medium E. The medium was warmed to 37° C. 1000× dimethyl sulfoxide compound stocks of the compounds of the Examples were prepared to the desired concentrations. 10 mM compound stocks in dimethyl sulfoxide were diluted (1 μL to 1 mL CM4000; final concentration=10 μM). Overlay medium was aspirated and […] dose solution added to the desired labeled 96 well plate. Cells were then dosed with compound (10 μM) and prototypical induces at the targeted concentrations either 50 i.tM for omeprazole (Sigma 0104/lotBCBF-2161V) or 10 i.tM for rifampicin (Sigma R3501/lot 011M1159V). A negative control, probenecid, was dosed at 10 i.tM (Sigma P8761/lot 013K0148).
(§3) On day 3, RNA isolation was performed. All surfaces were cleaned using RNase RNAy. Total RNA was isolated using MagMAX Express 96 RNA Isolation System (Life Technologies, AM1830). Briefly, hepatocytes were washed once with 1X PBS (phosphate buffered saline). 145 μL of RNA Lysis Buffer was added to each well and each well was mixed by pipetting several times. Lysate was then transferred to a well of a 96 well Binding Plate. Samples were then mixed with 20 μL magnetic beads coming from the kit. RNA bound to beads was then captured by the magnetic tip manifold and beads were washed with the wash solution. Samples were treated with TURBOTmDNase. After TURBOTmDNase treatment, RNA was rebound to beads and washed with the provided wash buffer an additional two times. Beads are then dried, and RNA was eluted with 50 μL elution buffer. The eluted mRNA was transferred from the wells to RNase-free sealable microtiter plates and stored at -80° C. until use.
(§4) Following mRNA isolation, reverse transcription (RT) reactions were performed using TaqmanTm Reverse Transcription Reagents (ThermoFisher Scientific). RT master mix was prepared by mixing 2.5 μL 10× RT buffer, 5.5 μL 25 mM MgCl2, 5μL deoxyNTP mixture, 1.25 50 mM random hexamers, 0.5 μL 2× RNAse inhibitor, 0.625 μL multiscript RTase (50U/μL) and 0.625 μL water. An aliquot of RT mix (16 μL) and an aliquot of mRNA sample (9 μL) was added to each well of a 96-well plate. The SimpliAmpTM Thermal cycler PCR System VIIA7 from Applied Biosystems was used for reverse transcription under the following conditions: segment 1: 25° C. for 10 minutes; segment 2: 45° C. for 45 minutes; segment 3: 95° C. for 5 minutes; and segment 4: 4° C. hold; with 1 cycle for each segment. […]
(In general: Real-time PCR tracks product formation cycle by cycle.)

In the next data set the test system is CYP3A4 mRNA. The experiment in a line: CYP3A4 Induction Assay (qPCR, human hepatocytes). The note with it: cryopreserved human hepatocytes (plated), 10 μM compound, mRNA fold over vehicle (0.1% DMSO). It counts as in vitro ADME. How it is done: as §1, §2, §3, §4

What is called EC50 is the concentration giving half of the maximal effect. By fold induction is commonly meant the signal under treatment as a multiple of the control signal. A high value points to a large rise in signal. In the case of `CO[C@H](c1c(Nc2ccc([C@H](N(C)C(=O)C3CCN(C(=O)CO)CC3)C(F)(F)F)cc2)cnc2sc(C)nc12)C(F)F` [Example 21, N-{(1S) -1-[4-({7-[(1R)-2,2-difluoro-1-methoxyethyl]-2-methyl[1,3]thiazolo[5,4-b]pyridin-6-yl}amino)phenyl]-2,2,2-trifluoroethyl}-1-(hydroxyacetyl)-N-methylpiperidine-4-carboxamide], the values for the EC50 at human MALT-1 protein and with OCI-LY3 IL6 were 141 nM and 670 nM, respectively. Besides, the “CYP3A4 % of positive control (%)” value in the data set with CYP 3A4 mRNA is “(5.55) %”. This molecule also came in with a fold induction at 1 day, 10 µM in the data set with CYP3A4 mRNA of 1.29.
The matching figures for `CCN(C(=O)C1CCS(=O)(=O)CC1)[C@@H](c1ccc(Nc2cnc3sc(C)nc3c2[C@H](C)OC)cc1)C(F)(F)F` [Example 7, N-ethyl-1,1-dioxo-N-{(1S)-2,2,2-trifluoro-1-[4-({7-[(1S)-1-methoxyethyl]-2-methyl[1,3]thiazolo [5,4-b]pyridin-6-yl}amino)phenyl]ethyl}-1λ^6-thiane-4-carboxamide]: 135 nM, 140 nM, “(12.7) %” and 1.93.
The corresponding values for `CO[C@@H](C)c1c(Nc2ccc([C@H](N(C)C(=O)C3CCN(C(=O)CO)CC3)C(F)(F)F)cc2)cnc2sc(C)nc12` [Example 20, 1-(hydroxyacetyl)-N-methyl-N-{(1S)-2,2,2-trifluoro-1-[4-({7-[(1S)-1-methoxyethyl]-2-methyl[1,3]thiazolo [5,4-b]pyridin-6-yl}amino)phenyl]ethyl}piperidine-4-carboxamide] are 120 nM, 180 nM, “(4.08) %” and 1.38.
The corresponding values for `CO[C@H](C)c1c(Nc2ccc([C@H](N(C)C(=O)C3CCN(C(=O)CO)CC3)C(F)(F)F)cc2)cnc2sc(C)nc12` [Example 34, 1-(hydroxyacetyl)-N-methyl-N-1{(1S)-2,2,2-trifluoro-1-[4-({7-[(1R)-1-methoxyethyl]-2-methyl[1,3]thiazolo[5,4-b]pyridin-6-yl}amino)phenyl]ethyl}piperidine-4-carboxamide] are 112 nM, 190 nM, “(13) %” and 2.11.
For `CO[C@@H](C)c1c(Nc2ccc([C@H](N(C)C(=O)C3CCN(C(=O)[C@H](O)CO)CC3)C(F)(F)F)cc2)cnc2sc(C)nc12` [Example 27, 1-[(2R)-2,3-dihydroxypropanoyl]-N-methyl-N-{(1S)-2,2,2-trifluoro-1-[4-({7-[(1 S)-1-methoxyethyl]-2-methyl[1,3]thiazolo [5,4-b]pyridin-6-yl}amino)phenyl]ethyl}piperidine-4-carboxamide], the EC50 on human MALT-1 protein came out at 70 nM; in the data set on OCI-LY3 IL6 it was 410 nM. Further, the “CYP3A4 % of positive control (%)” value in the data set on CYP 3A4 mRNA is given as “(7.55) %”. Also, the fold induction at 1 day, 10 µM in the data set with CYP3A4 mRNA was determined as 1.47.
The matching figures for `CO[C@H](C)c1c(Nc2ccc([C@@H](C(F)F)N(C)C(=O)C3CCS(=O)(=O)CC3)cc2)cnc2sc(C)nc12` [Example 12, N-{(1S)-2,2-difluoro-1-[4-({7-[(1R)-1-methoxyethyl]-2-methyl[1,3]thiazolo[5,4-b]pyridin-6-yl}amino)phenyl]ethyl}-N-methyl-1,1-dioxo-1λ^6-thiane-4-carboxamide]: 61 nM, 200 nM, “(31) %” and 3.65.
Consider `CO[C@H](c1c(Nc2ccc([C@@H](C(F)F)N(C)C(=O)C3CCN(C(C)=O)CC3)cc2)cnc2sc(C)nc12)C(F)(F)F` [Example 37, 1-acetyl-N-{(1S)-2,2-difluoro-1-[4-({2-methyl-7-[(1R)-2,2,2-trifluoro-1-methoxyethyl][1,3]thiazolo[5,4-b]pyridin-6-yl}amino)phenyl]ethyl}-N-methylpiperidine-4-carboxamide], for which the EC50 at human MALT-1 protein came out at 60 nM; in the data set with OCI-LY3 IL6, 210 nM. The “CYP3A4 % of positive control (%)” value in the data set on CYP 3A4 mRNA is given as “(19) %”. In the data set with CYP3A4 mRNA, this molecule had a fold induction at 1 day, 10 µM of 2.19.
The corresponding values for `CO[C@H](c1c(Nc2ccc([C@@H](C(F)F)N(C)C(=O)C3CCN(C(=O)CO)CC3)cc2)cnc2sc(C)nc12)C(F)(F)F` [Example 36, N-{(1S)-2,2-difluoro-1-[4-({2-methyl-7-[(1R)-2,2,2-trifluoro-1-methoxyethyl][1,3]thiazolo [5,4-b]pyridin-6-yl}amino)phenyl]ethyl}-1-(hydroxyacetyl)-N-methylpiperidine-4-carboxamide] are 48 nM, 270 nM, “(14.4) %” and 1.9.
The matching figures for `CO[C@H](c1c(Nc2ccc([C@@H](C(F)F)N(C)C(=O)C3CCS(=O)(=O)CC3)cc2)cnc2sc(C)nc12)C(F)F` [Example 6, N-{(1S)-1-[4-({7-[(1R)-2,2-difluoro-l-methoxyethyl]-2-methyl[1,3]thiazolo[5,4-b]pyridin-6-y1}amino)phenyl]-2,2-difluoroethyl}-N-methyl-1,1-dioxo-1λ^6-thiane-4-carboxamide]: 146 nM, 210 nM, “(5.46) %” and 1.4.
